Assay results published in patent publication US7662896B2, “Fluorochemical sulfonamide surfactants” (3M Innovative Properties Company, priority 1999, dated 2010).

How the values were obtained:
[1] = Surface tension in water (Test Procedure I, Kruss K12 Tensiometer); assay type: physicochemical; details: for Surface Tension (dynes/cm) at Various Surfactant Concentrations: 20 ppm: 20 ppm in water; for Surface Tension (dynes/cm) at Various Surfactant Concentrations: 200 ppm: 200 ppm in water; for Surface Tension (dynes/cm) at Various Surfactant Concentrations: 2000 ppm: 2000 ppm in water; for Surface Tension (dynes/cm) at Various Surfactant Concentrations: 10 ppm: 10 ppm in water; for Surface Tension (dynes/cm) at Various Surfactant Concentrations: 100 ppm: 100 ppm in water; for Surface Tension (dynes/cm) at Various Surfactant Concentrations: 1000 ppm: 1000 ppm in water; for Surface Tension (dynes/cm) at Various Surfactant Concentrations: 23 ppm: 23 ppm in water; for Surface Tension (dynes/cm) at Various Surfactant Concentrations: 83 ppm: 83 ppm in water; for Surface Tension (dynes/cm) at Various Surfactant Concentrations: 164 ppm: 164 ppm in water; for Surface Tension (dynes/cm) at Various Surfactant Concentrations: 273 ppm: 273 ppm in water; for Surface Tension (dynes/cm) at Various Surfactant Concentrations: 421 ppm: 421 ppm in water; for Surface Tension (dynes/cm) at Various Surfactant Concentrations: 617 ppm: 617 ppm in water; for Surface Tension (dynes/cm) at Various Surfactant Concentrations: 875 ppm: 875 ppm in water; for Surface Tension (dynes/cm) at Various Surfactant Concentrations: 1032 ppm: 1032 ppm in water
Description: Test Procedure I—Surface Tension Determination
All surface tensions were determined using a Kruss K12 Tensiometer. […] The program was run using a Wilhelmy platinum plate (PL12) and glass sample vessel (GL7).

[2] = tested on: SPF-bred Sprague Dawley rats; assay: 28-day oral toxicity study by daily gavage in the rat; assay type: in vivo; details: 28 days daily oral gavage; 3 (C8), 10 (C6), 30 (C4) mg/kg body weight/day
Description: (§1) A 28-day oral toxicity study with perfluorooctanesulfonate (C8F17SO3^−) was conducted by daily gavage in the rat followed by 14 and 28 day recovery periods. The dose levels for the study were selected to be 0 mg/kg body weight/day for species control, and 3 mg/kg body weight/day for potassium perfluorooctanesulfonate. The potassium perfluorooctanesulfonate was formulated in 1% aqueous carboxymethyl cellulose and administered daily for 28 days by oral gavage to SPF-bred Sprague Dawley rats. A vehicle control group and a treated group were tested, each consisting of 8 male and 8 female rats. An extra 3 rats per sex per group were allowed 14 days of recovery, and another 3 rats per sex per group were allowed 28 days of recovery.

[3] = Amount of perfluoroalkylsulfonate in male rat liver tissue (HPLC/ESMS/MS); assay type: in vivo; details: for Amount (ppm) of Sulfonate Day 1N* / Amount (ppm) of Sulfonate Day 1 / Amount (ppm) of Sulfonate Day 14N* / Amount (ppm) of Sulfonate Day 14 / Amount (ppm) of Sulfonate Day 28N* / Amount (ppm) of Sulfonate Day 28: male rat liver; for Amount (ppm) of Sulfonate Day 1N*: normalized to a feeding level of 3 mg/kg body weight per day; for Amount (ppm) of Sulfonate Day 1: day 1 after 28 day dosing at 3 (C8), 10 (C6), 30 (C4) mg/kg/day; for Amount (ppm) of Sulfonate Day 14N* / Amount (ppm) of Sulfonate Day 28N*: normalized to 3 mg/kg body weight per day; for Amount (ppm) of Sulfonate Day 14: day 14 of recovery; for Amount (ppm) of Sulfonate Day 28: day 28 of recovery
Description: as §1
Extracted liver tissue samples from the sacrificed rats of the study were homogenized and extracted using an ion-pairing extraction procedure. The extracts were quantitatively analyzed using high-pressure liquid chromatography/electrospray tandem mass spectroscopy (HPLC/ESMS/MS) and evaluated.

[4] = as above; assay type: in vivo; details: for Elimination from the body (in words): rat, tested as potassium salt
[5] = Contact angle measurement on glass cover slips (Test Procedure II); assay type: physicochemical
Description: Test Procedure II—Contact Angle Measurement
Glass cover slips were rinsed with HPLC water and allow to air dry. The surfactant to be tested was mixed at 0.01 weight % with HPLC water. The pH was measured and if below 9, the pH was adjust to 9 by adding several drops of 1% NH4OH. The surface tension of the surfactant solution was determined using Test Procedure I.
A clean, dry glass cover slip was placed in the clamp and lower to ˜1 mm above the surface of the surfactant/water solution. Velocity search was set at 6 mm/min and velocity measure was set at 4 mm/min. Immersion depth was at least 10 mm, depending on the size of the cover slip. Advancing and receding contact angles were measured with 3 cycles. The cover slip was allowed to dry in the clamp, above the solution, for ten minutes. Advancing and receding contact angles were measured a second time with 3 cycles.

[6] = Wetting and film characterization on glass surface (Test Procedure III); assay type: physicochemical
Description: Test Procedure III—Wetting and Film Characterization on Glass Surface
A solution of the surfactant to be tested was prepared at 0.01% by weight in HPLC grade water. The surfactant solution pH was measured and if necessary, pH was adjusted to 9 by adding several drops of 1% NH4OH. Glass plates were cleaned using Windex and a squeegee. Cleaned plates placed on top of 5.1 cm by 5.1 cm by 10.2 cm wood supports, which were laid out in a parallel arrangement. Two glass plates were used for each surfactant solution and laid out adjacent to each other. Surfactant solution (10 drops) was placed on each of the two plates and observed for solution hydrophilic or hydrophobic characteristics. The solution was considered hydrophilic if it was spread out and hydrophobic if it beaded up. The surfactant solutions were allowed to air dry and the resulting film on the glass plate observed for solution autophilic or autophobic properties. The solution was considered autophilic if it dried as a sheet and autophobic if it dried in separate puddles. […] On one of the plates with the dried surfactant film was placed 10 drops of the same surfactant solution on top of the area with the dry film. […] On the other plate was placed 10 drops of HPLC grade water on top of the area with the dry film, and hydrophilic or hydrophobic characteristics were observed.

[7] = Dynamic surface tension of water (Kruss Bubble Pressure Tensiometer BP2); assay type: physicochemical; details: 0.5 weight % in water; for Dynamic Surface Tension (mN/m) at Indicated Bubble Frequency (Hz): 0.01: 0.01 Hz; for Dynamic Surface Tension (mN/m) at Indicated Bubble Frequency (Hz): 0.5: 0.5 Hz; for Dynamic Surface Tension (mN/m) at Indicated Bubble Frequency (Hz): 1.0: 1.0 Hz; for Dynamic Surface Tension (mN/m) at Indicated Bubble Frequency (Hz): 5.0: 5.0 Hz
Description: The dynamic surface tension of water containing 0.5 weight % FC-171 (C8F17SO2N(Et)(CH2CH2O)7.5CH3, for which the surface tension was measured in Comparative Example C2, was measured with a Kruss Bubble Pressure Tensiometer, Model BP2 (Kruss USA, Charlotte, N.C.). The results are shown in Table 11.

[8] = 28 days following completion of feeding
[9] = 28 days following completion of feeding, normalized to the same feeding levels
[10] = immediately following completion of feeding
[11] = 0.01 weight % solution, glass with a film of dried surfactant solution
[12] = 0.01 weight % surfactant solution in HPLC water
[13] = 0.01 weight % solution air dried on glass

Molecule	Surface Tension (dynes/cm) at Various Surfactant Concentrations: 20 ppm [1] [dynes/cm]	Surface Tension (dynes/cm) at Various Surfactant Concentrations: 200 ppm [1] [dynes/cm]	Surface Tension (dynes/cm) at Various Surfactant Concentrations: 2000 ppm [1] [dynes/cm]	Observed effects in treated rats [2]	Amount (ppm) of Sulfonate Day 1N* [3] [ppm]	Amount (ppm) of Sulfonate Day 1 [3] [ppm]	Amount (ppm) of Sulfonate Day 14N* [3] [ppm]	Amount (ppm) of Sulfonate Day 14 [3] [ppm]	Amount (ppm) of Sulfonate Day 28N* [3] [ppm]	Amount (ppm) of Sulfonate Day 28 [3] [ppm]	Surface Tension (dynes/cm) at Various Surfactant Concentrations: 23 ppm [1] [dynes/cm]	Surface Tension (dynes/cm) at Various Surfactant Concentrations: 83 ppm [1] [dynes/cm]	Surface Tension (dynes/cm) at Various Surfactant Concentrations: 164 ppm [1] [dynes/cm]	Surface Tension (dynes/cm) at Various Surfactant Concentrations: 273 ppm [1] [dynes/cm]	Surface Tension (dynes/cm) at Various Surfactant Concentrations: 421 ppm [1] [dynes/cm]	Surface Tension (dynes/cm) at Various Surfactant Concentrations: 617 ppm [1] [dynes/cm]	Surface Tension (dynes/cm) at Various Surfactant Concentrations: 875 ppm [1] [dynes/cm]	Surface Tension (dynes/cm) at Various Surfactant Concentrations: 1032 ppm [1] [dynes/cm]	also measured
CN(CC(=O)[O-])S(=O)(=O)C(F)(F)C(F)(F)C(F)(F)C(F)(F)F.[K+] [C4F9SO2N(Et)CH2CO2K, C4F9SO2N(CH3)CH2CO2K]	68.5	57.4	44.4	–	–	–	–	–	–	–	–	–	–	–	–	–	–	–	–
CN(CC(=O)[O-])S(=O)(=O)C(F)(F)C(F)(F)C(F)(F)C(F)(F)C(F)(F)C(F)(F)F.[K+] [C6F13SO2N(Et)CH2CO2K, C6F13SO2N(CH3)CH2CO2K]	48.2	30.8	15.5	–	–	–	–	–	–	–	–	–	–	–	–	–	–	–	–
O=S(=O)(O)C(F)(F)C(F)(F)C(F)(F)C(F)(F)C(F)(F)C(F)(F)F [C6F13SO3^−, perfluorohexanesulfonate]	–	–	–	comparable, but less persistent than those of Comparative Example C22	98	327 ± 52	19	61.9 ± 11.7	11	36.3 ± 7.4	–	–	–	–	–	–	–	–	Factor lower than C8F17SO3^− in liver [3, 8]: 6.5; Factor lower than C8F17SO3^− in liver [3, 9]: 21.5; Factor lower than C8F17SO3^− in liver [3, 10]: 1.3
O=S(=O)([O-])C(F)(F)C(F)(F)C(F)(F)C(F)(F)F.[K+] [Example C4F9SO3K, Potassium perfluorobutanesulfonate]	–	–	–	No clear systematic toxicity, nor organ dysfunction at macroscopic or microscopic levels were observed	0.31	3.09 ± 1.58	0.0126	0.126 ± 0.084	0.0025	0.025 ± 0.015	–	–	–	–	–	–	–	–	Surface Tension (dynes/cm) at Various Surfactant Concentrations: 10 ppm [1]: 70 dynes/cm; Surface Tension (dynes/cm) at Various Surfactant Concentrations: 100 ppm [1]: 67.5 dynes/cm; Surface Tension (dynes/cm) at Various Surfactant Concentrations: 1000 ppm [1]: 53 dynes/cm; Factor lower than C6F13SO3^− in liver [4, 8]: > 1400; Factor lower than C6F13SO3^− in liver [4, 9]: 4400; Factor lower than C6F13SO3^− in liver [4, 10]: > 100; Elimination from the body (in words) [4]: unexpectedly fast and effective elimination; Elimination from the body (in words) ([4]; listed as perfluorobutylsulfonate): eliminates from the body much more effectively than perfluorohexylsulfonate and even more effectively than perfluorooctylsulfonate
O=S(=O)([O-])C(F)(F)C(F)(F)C(F)(F)C(F)(F)C(F)(F)C(F)(F)C(F)(F)C(F)(F)F.[K+] [Example C8F17SO3K, potassium perfluorooctanesulfonate]	–	–	–	decreased body weight, decreased blood cholesterol, increased liver size, and hepatocyte hypertrophy	419	419 ± 86	309	309 ± 34	237	237 ± 25	–	–	–	–	–	–	–	–	Surface Tension (dynes/cm) at Various Surfactant Concentrations: 10 ppm [1]: 67.7 dynes/cm; Surface Tension (dynes/cm) at Various Surfactant Concentrations: 100 ppm [1]: 54.1 dynes/cm; Surface Tension (dynes/cm) at Various Surfactant Concentrations: 1000 ppm [1]: 33.1 dynes/cm
CCN(CC(=O)[O-])S(=O)(=O)C(F)(F)C(F)(F)C(F)(F)C(F)(F)C(F)(F)C(F)(F)C(F)(F)C(F)(F)F.[K+] [FC-129, C8F17SO2N(C2H5)CH2CO2^−K^+]	49	23	17	–	–	–	–	–	–	–	29.5	29	24	17.5	16	15.5	16	16.5	Advancing CA on Dried Surfactant [5, 11]: 64.6 °; Receding CA on Dried Surfactant [5, 11]: 12.2 °; Advancing CA on Clean Glass [5, 12]: 61.6 °; Receding CA on Clean Glass [5, 12]: 7 °; Dried film clarity [6, 13]: clear; Dried film: autophilic or autophobic [6, 13]: autophilic; Solution on clean glass: hydrophilic or hydrophobic ([6]; 0.01 weight % solution in HPLC grade water): hydrophobic; Characteristic the dried film gave to water and to the surfactant solution ([6]; 10 drops placed on the dried film): hydrophilic
CCN(CCOCCOCCOCCOCCOCCOCCOC)S(=O)(=O)C(F)(F)C(F)(F)C(F)(F)C(F)(F)C(F)(F)C(F)(F)C(F)(F)C(F)(F)F [FC-171, C8F17SO2N(C2H5)(CH2CH2O)7CH3]	–	–	–	–	–	–	–	–	–	–	33.5	21	20.5	19.5	19	19	19	19	Dynamic Surface Tension (mN/m) at Indicated Bubble Frequency (Hz): 0.01 [7]: 51 mN/m; Dynamic Surface Tension (mN/m) at Indicated Bubble Frequency (Hz): 0.5 [7]: 67 mN/m; Dynamic Surface Tension (mN/m) at Indicated Bubble Frequency (Hz): 1.0 [7]: 70 mN/m; Dynamic Surface Tension (mN/m) at Indicated Bubble Frequency (Hz): 5.0 [7]: 71 mN/m
C4F9SO2N(CH3)(CH2CH2O)7.5CH3 [Example 1]	–	–	–	–	–	–	–	–	–	–	31	24	23	22.5	22	21.5	20	20	Surface tension in water compared with the C8F17 analog (in words) ([1]; water, plotted against concentration in FIGS. 3-5, 7, 8): very similar to that found when using the C8F17 segment; Dynamic Surface Tension (mN/m) at Indicated Bubble Frequency (Hz): 0.01 [7]: 21 mN/m; Dynamic Surface Tension (mN/m) at Indicated Bubble Frequency (Hz): 0.5 [7]: 22 mN/m; Dynamic Surface Tension (mN/m) at Indicated Bubble Frequency (Hz): 1.0 [7]: 22.5 mN/m; Dynamic Surface Tension (mN/m) at Indicated Bubble Frequency (Hz): 5.0 [7]: 23 mN/m
